According to patent US10221139B2, “Inhibitors of histone demethylases” (Gilead Sciences, Inc., priority 2012, dated 2019):

Columns and labels:
Format in all cases: biochemical
JMJD1B (KDM3B) = target: T1, JMJD1B (KDM3B) (Homo sapiens, UniProt Q7LBC6); assay: Histone lysine demethylase AlphaLISA assay, JMJD1B; settings: substrate BK9M2
T1 construct: 842-1761; host or cells: Bac (baculovirus)
T1 sequence (Q7LBC6 842-1761): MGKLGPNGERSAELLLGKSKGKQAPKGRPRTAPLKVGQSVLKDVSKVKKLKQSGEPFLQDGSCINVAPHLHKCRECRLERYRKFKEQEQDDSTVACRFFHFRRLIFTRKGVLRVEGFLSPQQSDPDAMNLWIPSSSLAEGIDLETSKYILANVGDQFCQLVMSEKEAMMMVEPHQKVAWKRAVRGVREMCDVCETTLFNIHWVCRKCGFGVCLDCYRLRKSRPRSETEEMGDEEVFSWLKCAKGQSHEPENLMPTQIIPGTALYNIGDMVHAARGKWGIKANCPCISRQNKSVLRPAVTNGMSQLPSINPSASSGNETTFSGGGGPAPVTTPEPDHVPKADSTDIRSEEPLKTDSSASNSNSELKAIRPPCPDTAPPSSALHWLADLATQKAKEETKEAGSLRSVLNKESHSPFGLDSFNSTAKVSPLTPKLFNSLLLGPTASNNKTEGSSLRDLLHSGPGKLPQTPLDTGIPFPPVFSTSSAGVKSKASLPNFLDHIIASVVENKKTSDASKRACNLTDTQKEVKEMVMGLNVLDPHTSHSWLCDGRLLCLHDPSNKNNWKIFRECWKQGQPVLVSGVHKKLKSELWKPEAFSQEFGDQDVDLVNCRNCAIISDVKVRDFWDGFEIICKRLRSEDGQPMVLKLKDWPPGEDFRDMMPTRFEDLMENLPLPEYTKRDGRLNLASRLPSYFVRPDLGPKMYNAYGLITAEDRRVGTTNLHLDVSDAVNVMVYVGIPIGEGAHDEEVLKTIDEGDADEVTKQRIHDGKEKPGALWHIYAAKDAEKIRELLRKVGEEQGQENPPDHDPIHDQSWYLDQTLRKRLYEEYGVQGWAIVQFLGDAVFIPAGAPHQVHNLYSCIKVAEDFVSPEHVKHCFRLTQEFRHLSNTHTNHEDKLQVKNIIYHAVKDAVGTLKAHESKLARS
Procedure: (§1) Example 2: Histone Lysine Demethylase AlphaLISA Assays for IC50 Value Determination
(§2) Assays are performed analogously to the protocol described by Perkin Elmer (Roy et al. Perkin Elmer Technical Note: AlphaLISA #12, April 2011).
(§3) Enzymes are dissolved in enzyme buffer and incubated for 10 min before 5 μL is added to 5 μL 3% DMSO solutions of compounds in enzyme buffer. Incubated for another 10 minutes, before 5 μL substrate solution is added and the reaction mixture is incubated at room temperature for the given period. 10 μL acceptor beads, suspended at given dilutions in Epigenetic Buffer (Perkin Elmer AL008) from stock, are added and the suspension is incubated 60 minutes in the dark at room temperature, before 10 μL suspension (at the given dilutions in Epigenetic Buffer) of streptavidin donor beads (Perkin Elmer 6760002) in Epigenetic Buffer is added. After incubation at room temperature in the dark the plates are read. Reaction conditions are seen in Table 2b.

FBXL10 (KDM2B) = target: T2, FBXL10 (KDM2B) (Homo sapiens, UniProt Q8NHM5); assay: Histone lysine demethylase AlphaLISA assay, FBXL10; settings: substrate BH3K36M2
T2 construct: 1-650; purchased BPS, Bioscience, US; host or cells: Bac (baculovirus)
T2 sequence (Q8NHM5 1-650): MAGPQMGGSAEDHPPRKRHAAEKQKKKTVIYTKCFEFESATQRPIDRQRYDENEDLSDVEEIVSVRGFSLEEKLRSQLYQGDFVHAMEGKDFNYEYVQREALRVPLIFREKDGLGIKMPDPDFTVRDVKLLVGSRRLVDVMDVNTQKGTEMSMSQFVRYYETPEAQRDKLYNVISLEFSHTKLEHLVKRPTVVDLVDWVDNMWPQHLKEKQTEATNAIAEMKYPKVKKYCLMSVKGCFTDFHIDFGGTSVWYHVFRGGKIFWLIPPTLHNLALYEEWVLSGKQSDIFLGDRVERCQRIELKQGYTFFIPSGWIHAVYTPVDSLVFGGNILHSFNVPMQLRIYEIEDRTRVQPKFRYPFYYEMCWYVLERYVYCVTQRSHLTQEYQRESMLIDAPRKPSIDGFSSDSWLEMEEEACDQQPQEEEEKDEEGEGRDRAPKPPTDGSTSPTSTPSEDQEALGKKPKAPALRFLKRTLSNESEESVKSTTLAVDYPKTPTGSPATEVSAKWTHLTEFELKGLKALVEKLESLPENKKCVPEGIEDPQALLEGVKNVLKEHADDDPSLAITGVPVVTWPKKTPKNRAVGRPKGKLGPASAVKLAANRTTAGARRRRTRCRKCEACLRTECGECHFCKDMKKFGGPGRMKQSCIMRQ
Procedure: as §1, §2, §3

PHF8 (KDM7) = target: T3, PHF8 (KDM7) (Homo sapiens, UniProt Q9UPP1); assay: Histone lysine demethylase AlphaLISA assay, PHF8; settings: substrate BK9M2
T3 construct: KDM7 (PHF8); BRIC; 1-1322; Bac
Procedure: as §1, §2, §3

JMJD3 (KDM6B) = target: T4, JMJD3 (KDM6B) (Homo sapiens, UniProt O15054); assay: Histone lysine demethylase AlphaLISA assay, JMJD3; settings: substrate BK27M3
T4 construct: 1043-end; purchased BPS; host or cells: Bac (baculovirus)
Procedure: as §1, §2, §3

JMJD2B (KDM4B) = target: T5, JMJD2B (KDM4B) (Homo sapiens, UniProt O94953); assay: Histone lysine demethylase AlphaLISA assay, JMJD2B; settings: substrate BK9M3, read-out: JMUD2B IC50
T5 construct: 2-500; purchased BPS; host or cells: Bac (baculovirus)
T5 sequence (O94953 2-500): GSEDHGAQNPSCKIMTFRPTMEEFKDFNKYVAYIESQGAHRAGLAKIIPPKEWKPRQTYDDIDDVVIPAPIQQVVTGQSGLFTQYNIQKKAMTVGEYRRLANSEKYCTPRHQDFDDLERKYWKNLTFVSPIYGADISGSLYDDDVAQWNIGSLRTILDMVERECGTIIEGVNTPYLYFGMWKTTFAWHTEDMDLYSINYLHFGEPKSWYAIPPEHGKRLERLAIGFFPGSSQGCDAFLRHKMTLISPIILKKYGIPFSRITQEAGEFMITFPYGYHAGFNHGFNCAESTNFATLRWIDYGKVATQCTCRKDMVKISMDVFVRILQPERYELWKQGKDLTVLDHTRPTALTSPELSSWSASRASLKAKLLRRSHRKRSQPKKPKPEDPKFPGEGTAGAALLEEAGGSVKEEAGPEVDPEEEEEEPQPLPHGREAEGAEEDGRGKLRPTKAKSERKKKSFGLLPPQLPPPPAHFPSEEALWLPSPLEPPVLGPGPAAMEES
Procedure: as §1, §2, §3

JMJD2A (KDM4A) = target: T6, JMJD2A (KDM4A) (Homo sapiens, UniProt O75164); assay: Histone lysine demethylase AlphaLISA assay, JMJD2A; settings: substrate BK9M3
T6 construct: 1-350; purchased BPS, Bioscience, US; host or cells: E. coli
T6 sequence (O75164 1-350): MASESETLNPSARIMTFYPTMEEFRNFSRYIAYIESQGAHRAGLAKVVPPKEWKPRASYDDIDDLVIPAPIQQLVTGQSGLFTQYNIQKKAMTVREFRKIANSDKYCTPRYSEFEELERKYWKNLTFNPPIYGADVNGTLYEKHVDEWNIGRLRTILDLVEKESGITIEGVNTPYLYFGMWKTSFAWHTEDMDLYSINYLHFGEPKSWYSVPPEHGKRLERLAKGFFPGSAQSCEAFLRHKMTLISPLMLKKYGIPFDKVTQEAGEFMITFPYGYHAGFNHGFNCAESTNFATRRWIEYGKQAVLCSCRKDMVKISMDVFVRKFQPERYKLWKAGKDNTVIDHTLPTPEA
Procedure: as §1, §2, §3

GASC1 (KDM4C, JMJD2C) = target: T7, GASC1 (KDM4C, JMJD2C) (Homo sapiens, UniProt Q9H3R0); assay: Histone lysine demethylase AlphaLISA assay, GASC1; settings: substrate BK9M3
T7 construct: 1-349; host or cells: E. coli
T7 sequence (Q9H3R0 1-349): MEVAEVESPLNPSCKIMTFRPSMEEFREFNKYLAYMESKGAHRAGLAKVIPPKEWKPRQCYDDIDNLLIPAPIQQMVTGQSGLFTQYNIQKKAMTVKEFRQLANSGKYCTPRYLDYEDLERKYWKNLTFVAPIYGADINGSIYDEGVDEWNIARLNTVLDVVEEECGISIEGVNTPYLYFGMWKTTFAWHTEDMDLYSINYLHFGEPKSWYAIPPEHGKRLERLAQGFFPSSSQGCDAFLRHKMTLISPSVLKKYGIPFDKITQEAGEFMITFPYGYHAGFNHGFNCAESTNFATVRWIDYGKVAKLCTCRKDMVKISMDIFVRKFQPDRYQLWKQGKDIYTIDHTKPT
Outline: (§4)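 Per-enzyme reaction conditions apply; each enzyme sees compound for 10 min ahead of substrate addition. Bead-based AlphaLISA detection at room temperature, protected from light, gives the IC50.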

UTX (KDM6A) = target: T8, UTX (KDM6A) (Homo sapiens, UniProt O15550); assay: Histone lysine demethylase AlphaLISA assay, UTX; settings: substrate BK27M3
T8 construct: 919-1401; host or cells: E. coli
Outline: as §4

T4 sequence (O15054 1043-1682 isoform O15054-1 limits assumed): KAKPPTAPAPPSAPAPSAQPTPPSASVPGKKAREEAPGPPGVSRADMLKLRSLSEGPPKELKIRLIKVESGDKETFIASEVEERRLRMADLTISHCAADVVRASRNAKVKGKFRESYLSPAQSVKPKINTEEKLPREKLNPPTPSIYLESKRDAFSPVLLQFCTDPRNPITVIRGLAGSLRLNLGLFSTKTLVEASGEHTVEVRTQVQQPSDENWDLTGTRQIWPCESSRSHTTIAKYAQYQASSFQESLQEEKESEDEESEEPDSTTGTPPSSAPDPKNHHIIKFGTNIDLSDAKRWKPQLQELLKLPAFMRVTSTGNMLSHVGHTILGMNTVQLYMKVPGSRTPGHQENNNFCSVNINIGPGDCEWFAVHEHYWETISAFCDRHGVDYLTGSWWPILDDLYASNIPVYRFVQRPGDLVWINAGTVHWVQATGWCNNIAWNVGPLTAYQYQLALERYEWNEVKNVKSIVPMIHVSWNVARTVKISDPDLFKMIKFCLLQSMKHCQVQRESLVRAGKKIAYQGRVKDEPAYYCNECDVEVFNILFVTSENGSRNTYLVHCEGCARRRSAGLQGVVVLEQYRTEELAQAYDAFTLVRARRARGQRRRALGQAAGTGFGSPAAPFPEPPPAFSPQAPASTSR
T8 sequence (O15550 919-1401): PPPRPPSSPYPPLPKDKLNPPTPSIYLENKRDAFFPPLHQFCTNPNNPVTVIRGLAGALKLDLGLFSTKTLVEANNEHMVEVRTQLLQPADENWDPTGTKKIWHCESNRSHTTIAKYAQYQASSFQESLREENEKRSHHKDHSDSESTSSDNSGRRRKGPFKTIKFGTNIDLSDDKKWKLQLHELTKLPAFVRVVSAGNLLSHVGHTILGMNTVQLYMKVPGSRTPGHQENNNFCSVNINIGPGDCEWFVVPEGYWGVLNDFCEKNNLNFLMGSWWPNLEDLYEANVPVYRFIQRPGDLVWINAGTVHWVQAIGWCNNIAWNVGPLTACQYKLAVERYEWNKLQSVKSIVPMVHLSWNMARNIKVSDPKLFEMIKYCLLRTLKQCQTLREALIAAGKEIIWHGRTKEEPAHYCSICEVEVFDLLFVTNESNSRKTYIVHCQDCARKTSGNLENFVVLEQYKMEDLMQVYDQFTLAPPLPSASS
T3 sequence (Q9UPP1 37-477 limits assumed): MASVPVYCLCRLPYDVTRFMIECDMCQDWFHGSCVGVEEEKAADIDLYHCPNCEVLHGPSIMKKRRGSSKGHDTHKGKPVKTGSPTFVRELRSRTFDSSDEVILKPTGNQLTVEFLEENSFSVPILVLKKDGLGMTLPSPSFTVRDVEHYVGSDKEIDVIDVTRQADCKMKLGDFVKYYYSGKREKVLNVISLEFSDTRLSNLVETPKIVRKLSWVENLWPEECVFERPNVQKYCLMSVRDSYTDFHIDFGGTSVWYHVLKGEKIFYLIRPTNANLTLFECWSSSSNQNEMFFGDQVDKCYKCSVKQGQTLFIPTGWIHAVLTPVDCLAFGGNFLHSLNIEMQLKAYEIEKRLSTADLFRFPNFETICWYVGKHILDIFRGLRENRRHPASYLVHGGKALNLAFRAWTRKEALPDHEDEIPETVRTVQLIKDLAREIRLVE

IC50 (JMJD1B (KDM3B)): ≥ 1 µM
IC50 (FBXL10 (KDM2B)): ≥ 1 µM
IC50 (PHF8 (KDM7)): ≥ 1 µM
IC50 (JMJD3 (KDM6B)): ≥ 1 µM
IC50 (JMJD2B (KDM4B)): 0.1 to 1 µM
IC50 (JMJD2A (KDM4A)): 0.1 to 1 µM
IC50 (GASC1 (KDM4C, JMJD2C)): ≥ 1 µM
IC50 (UTX (KDM6A)): ≥ 1 µM
SMILES: O=C(O)c1ccnc(CN[C@@H]2CCN(CCCc3ccccc3)C2)c1 [#28, 2-({[(3R)-1-(3-phenylpropyl)pyrrolidin-3-yl]amino}methyl)pyridine-4-carboxylic acid]
